# Assay results published in PubChem BioAssay (NCI).
#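 1) Cells in 96-well plates. 2) Compound, 48 h, 5 concentrations. 3) Linear interpolation between surrounding doses. 4) Unreached endpoint = highest concentration. The concentration for 50% growth inhibition is given as GI50. TGI denotes the concentration required for complete inhibition of growth.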
# How the values were obtained:
# Assay in all cases: NCI anticancer screen, dose series, 48 h
# HCT-116 colon = test system: HCT-116 colon
# LOX IMVI melanoma = test system: LOX IMVI melanoma
# CAKI-1 renal = test system: CAKI-1 renal
# HCT-15 colon = test system: HCT-15 colon
# SF-295 CNS = test system: SF-295 CNS
# NCI/ADR-RES ovarian = test system: NCI/ADR-RES ovarian
# OVCAR-5 ovarian = test system: OVCAR-5 ovarian
# SNB-19 CNS = test system: SNB-19 CNS
# HL-60(TB) leukemia = test system: HL-60(TB) leukemia
# A498 renal = test system: A498 renal
# 786-0 renal = test system: 786-0 renal
# HS 578T breast = test system: HS 578T breast
# OVCAR-4 ovarian = test system: OVCAR-4 ovarian
# SW-620 colon = test system: SW-620 colon
# RXF 393 renal = test system: RXF 393 renal
# NCI-H23 lung = test system: NCI-H23 lung
# MDA-MB-435 = test system: MDA-MB-435
# HT29 colon = test system: HT29 colon
# OVCAR-8 ovarian = test system: OVCAR-8 ovarian
# NCI-H522 lung = test system: NCI-H522 lung
# SF-268 CNS = test system: SF-268 CNS
# M14 melanoma = test system: M14 melanoma
# ACHN renal = test system: ACHN renal
# MDA-MB-231 breast = test system: MDA-MB-231 breast
# K-562 leukemia = test system: K-562 leukemia
# MOLT-4 leukemia = test system: MOLT-4 leukemia
# UO-31 renal = test system: UO-31 renal
# SR leukemia = test system: SR leukemia
# OVCAR-3 ovarian = test system: OVCAR-3 ovarian
# TK-10 renal = test system: TK-10 renal
# KM12 colon = test system: KM12 colon
# NCI-H226 lung = test system: NCI-H226 lung
# A549 NSCLC = test system: A549 NSCLC
# MCF7 breast = test system: MCF7 breast
# SK-MEL-5 melanoma = test system: SK-MEL-5 melanoma
# DU-145 prostate = test system: DU-145 prostate
# T-47D breast = test system: T-47D breast
# RPMI-8226 leukemia = test system: RPMI-8226 leukemia
# SK-OV-3 ovarian = test system: SK-OV-3 ovarian
# MALME-3M melanoma = test system: MALME-3M melanoma
# SK-MEL-2 melanoma = test system: SK-MEL-2 melanoma
# U251 CNS = test system: U251 CNS
# HOP-92 NSCLC = test system: HOP-92 NSCLC
# UACC-257 melanoma = test system: UACC-257 melanoma
# BT-549 breast = test system: BT-549 breast
# IGROV1 ovarian = test system: IGROV1 ovarian
# SK-MEL-28 melanoma = test system: SK-MEL-28 melanoma
# COLO 205 colon = test system: COLO 205 colon
# EKVX NSCLC = test system: EKVX NSCLC
# HOP-62 NSCLC = test system: HOP-62 NSCLC
# MDA-N = test system: MDA-N
# UACC-62 melanoma = test system: UACC-62 melanoma
# SN12C renal = test system: SN12C renal
# PC-3 prostate = test system: PC-3 prostate
# SF-539 CNS = test system: SF-539 CNS
# NCI-H460 lung = test system: NCI-H460 lung
# SNB-75 CNS = test system: SNB-75 CNS
# HCC-2998 colon = test system: HCC-2998 colon
compound,measurement,setting,value
CC(C)(C)OC(=O)CCC1NC(=O)[C@@H]2Cc3c([nH]c4ccccc34)C(C3CCCCC3)N2C1=O (stereo partly drawn),TGI,HCT-116 colon,> 100 µM
same,TGI,LOX IMVI melanoma,> 100 µM
same,TGI,CAKI-1 renal,> 100 µM
same,TGI,HCT-15 colon,> 100 µM
same,TGI,SF-295 CNS,66.2 µM
same,TGI,NCI/ADR-RES ovarian,> 100 µM
same,TGI,OVCAR-5 ovarian,> 100 µM
same,TGI,SNB-19 CNS,> 100 µM
same,TGI,HL-60(TB) leukemia,41.9 µM
same,TGI,A498 renal,> 100 µM
same,TGI,786-0 renal,> 100 µM
same,TGI,HS 578T breast,> 100 µM
same,TGI,OVCAR-4 ovarian,> 100 µM
same,TGI,SW-620 colon,> 100 µM
same,TGI,RXF 393 renal,> 100 µM
same,TGI,NCI-H23 lung,> 100 µM
same,TGI,MDA-MB-435,> 100 µM
same,TGI,HT29 colon,40.2 µM
same,TGI,OVCAR-8 ovarian,> 100 µM
same,TGI,NCI-H522 lung,> 100 µM
same,TGI,SF-268 CNS,> 100 µM
same,TGI,M14 melanoma,> 100 µM
same,TGI,ACHN renal,> 100 µM
same,TGI,MDA-MB-231 breast,76.6 µM
same,TGI,K-562 leukemia,> 100 µM
same,TGI,MOLT-4 leukemia,61.3 µM
same,TGI,UO-31 renal,> 100 µM
same,TGI,SR leukemia,61.1 µM
same,TGI,OVCAR-3 ovarian,99.7 µM
same,TGI,TK-10 renal,> 100 µM
same,TGI,KM12 colon,78 µM
same,TGI,NCI-H226 lung,> 100 µM
same,TGI,A549 NSCLC,> 100 µM
same,TGI,MCF7 breast,> 100 µM
same,TGI,SK-MEL-5 melanoma,> 100 µM
same,TGI,DU-145 prostate,> 100 µM
same,TGI,T-47D breast,> 100 µM
same,TGI,RPMI-8226 leukemia,56.5 µM
same,TGI,SK-OV-3 ovarian,> 100 µM
same,TGI,MALME-3M melanoma,80.3 µM
same,TGI,SK-MEL-2 melanoma,65.5 µM
same,TGI,U251 CNS,> 100 µM
same,TGI,HOP-92 NSCLC,78.3 µM
same,TGI,UACC-257 melanoma,> 100 µM
same,TGI,BT-549 breast,> 100 µM
same,TGI,IGROV1 ovarian,> 100 µM
same,TGI,SK-MEL-28 melanoma,> 100 µM
same,TGI,COLO 205 colon,38.9 µM
same,TGI,EKVX NSCLC,> 100 µM
same,TGI,HOP-62 NSCLC,> 100 µM
same,TGI,MDA-N,> 100 µM
same,TGI,UACC-62 melanoma,> 100 µM
same,TGI,SN12C renal,65.6 µM
same,TGI,PC-3 prostate,74.2 µM
O=[N+]([O-])[O][Sn]([O][Sn]([O][N+](=O)[O-])([c]1ccccc1)[c]1ccccc1)([c]1ccccc1)[c]1ccccc1,GI50,HCT-116 colon,> 100 µM
same,TGI,HCT-116 colon,> 100 µM
same,GI50,LOX IMVI melanoma,83.4 µM
same,TGI,LOX IMVI melanoma,> 100 µM
same,GI50,CAKI-1 renal,> 100 µM
same,TGI,CAKI-1 renal,> 100 µM
same,GI50,HCT-15 colon,> 100 µM
same,TGI,HCT-15 colon,> 100 µM
same,GI50,SF-295 CNS,> 100 µM
same,TGI,SF-295 CNS,> 100 µM
same,GI50,NCI/ADR-RES ovarian,> 100 µM
same,TGI,NCI/ADR-RES ovarian,> 100 µM
same,GI50,OVCAR-5 ovarian,> 100 µM
same,TGI,OVCAR-5 ovarian,> 100 µM
same,GI50,SF-539 CNS,> 100 µM
same,TGI,SF-539 CNS,> 100 µM
same,GI50,SNB-19 CNS,> 100 µM
same,TGI,SNB-19 CNS,> 100 µM
same,GI50,A498 renal,> 100 µM
same,TGI,A498 renal,> 100 µM
same,GI50,786-0 renal,> 100 µM
same,TGI,786-0 renal,> 100 µM
same,GI50,HS 578T breast,47.1 µM
same,TGI,HS 578T breast,> 100 µM
same,GI50,OVCAR-4 ovarian,> 100 µM
same,TGI,OVCAR-4 ovarian,> 100 µM
same,GI50,SW-620 colon,> 100 µM
same,TGI,SW-620 colon,> 100 µM
same,GI50,RXF 393 renal,> 100 µM
same,TGI,RXF 393 renal,> 100 µM
same,GI50,NCI-H23 lung,> 100 µM
same,TGI,NCI-H23 lung,> 100 µM
same,GI50,MDA-MB-435,> 100 µM
same,TGI,MDA-MB-435,> 100 µM
same,GI50,HT29 colon,> 100 µM
same,TGI,HT29 colon,> 100 µM
same,GI50,OVCAR-8 ovarian,> 100 µM
same,TGI,OVCAR-8 ovarian,> 100 µM
same,GI50,NCI-H522 lung,23.1 µM
same,TGI,NCI-H522 lung,> 100 µM
same,GI50,SF-268 CNS,> 100 µM
same,TGI,SF-268 CNS,> 100 µM
same,GI50,M14 melanoma,> 100 µM
same,TGI,M14 melanoma,> 100 µM
same,GI50,NCI-H460 lung,> 100 µM
same,TGI,NCI-H460 lung,> 100 µM
same,GI50,ACHN renal,> 100 µM
same,TGI,ACHN renal,> 100 µM
same,GI50,MDA-MB-231 breast,> 100 µM
same,TGI,MDA-MB-231 breast,> 100 µM
same,GI50,K-562 leukemia,> 100 µM
same,TGI,K-562 leukemia,> 100 µM
same,GI50,MOLT-4 leukemia,> 100 µM
same,TGI,MOLT-4 leukemia,> 100 µM
same,GI50,UO-31 renal,> 100 µM
same,TGI,UO-31 renal,> 100 µM
same,GI50,SR leukemia,> 100 µM
same,TGI,SR leukemia,> 100 µM
same,GI50,OVCAR-3 ovarian,> 100 µM
same,TGI,OVCAR-3 ovarian,> 100 µM
same,GI50,TK-10 renal,> 100 µM
same,TGI,TK-10 renal,> 100 µM
same,GI50,KM12 colon,> 100 µM
same,TGI,KM12 colon,> 100 µM
same,GI50,NCI-H226 lung,> 100 µM
same,TGI,NCI-H226 lung,> 100 µM
same,GI50,A549 NSCLC,> 100 µM
same,TGI,A549 NSCLC,> 100 µM
same,GI50,MCF7 breast,> 100 µM
same,TGI,MCF7 breast,> 100 µM
same,GI50,SK-MEL-5 melanoma,> 100 µM
same,TGI,SK-MEL-5 melanoma,> 100 µM
same,GI50,DU-145 prostate,> 100 µM
same,TGI,DU-145 prostate,> 100 µM
same,GI50,T-47D breast,> 100 µM
same,TGI,T-47D breast,> 100 µM
same,GI50,RPMI-8226 leukemia,> 100 µM
same,TGI,RPMI-8226 leukemia,> 100 µM
same,GI50,SK-OV-3 ovarian,> 100 µM
same,TGI,SK-OV-3 ovarian,> 100 µM
same,GI50,SNB-75 CNS,> 100 µM
same,TGI,SNB-75 CNS,> 100 µM
same,GI50,MALME-3M melanoma,79.3 µM
same,TGI,MALME-3M melanoma,> 100 µM
same,GI50,SK-MEL-2 melanoma,> 100 µM
same,TGI,SK-MEL-2 melanoma,> 100 µM
same,GI50,U251 CNS,> 100 µM
same,TGI,U251 CNS,> 100 µM
same,GI50,HOP-92 NSCLC,38.6 µM
same,TGI,HOP-92 NSCLC,> 100 µM
same,GI50,UACC-257 melanoma,> 100 µM
same,TGI,UACC-257 melanoma,> 100 µM
same,GI50,BT-549 breast,> 100 µM
same,TGI,BT-549 breast,> 100 µM
same,GI50,IGROV1 ovarian,72.8 µM
same,TGI,IGROV1 ovarian,> 100 µM
same,GI50,HCC-2998 colon,> 100 µM
same,TGI,HCC-2998 colon,> 100 µM
same,GI50,SK-MEL-28 melanoma,> 100 µM
same,TGI,SK-MEL-28 melanoma,> 100 µM
same,GI50,COLO 205 colon,> 100 µM
same,TGI,COLO 205 colon,> 100 µM
same,GI50,EKVX NSCLC,> 100 µM
same,TGI,EKVX NSCLC,> 100 µM
same,GI50,HOP-62 NSCLC,> 100 µM
same,TGI,HOP-62 NSCLC,> 100 µM
same,GI50,MDA-N,> 100 µM
same,TGI,MDA-N,> 100 µM
same,GI50,UACC-62 melanoma,53.6 µM
same,TGI,UACC-62 melanoma,> 100 µM
same,GI50,SN12C renal,> 100 µM
same,TGI,SN12C renal,> 100 µM
same,GI50,PC-3 prostate,63.2 µM
same,TGI,PC-3 prostate,> 100 µM
